In publication PMC6277767, “Broad and Region-Specific Impacts of the Synthetic Cannabinoid CP 55,940 in Adolescent and Adult Female Mouse Brains” (Frontiers in Molecular Neuroscience, 2018):

System: CD1 female mouse brain lipidome
Experiment: Brain-region lipid levels (HPLC/MS/MS lipidomics) 2 h after single i.p. 3 mg/kg CP 55,940 vs vehicle
Type: in vivo
Design: N-arachidonoyl phenylalanine level, Mean / N-stearoyl tryptophan level, Mean / N-stearoyl proline level, Mean / N-stearoyl leucine level, Mean / N-stearoyl phenylalanine level, Mean / N-stearoyl serine level, Mean / N-stearoyl methionine level, Mean: unit: moles per gram
Conditions: midbrain
Method: The Bloomington Institutional Animal Care and Use Committee of Indiana University reviewed and approved the animal procedures. Female mice from the CD1 strain were utilized to match our study examining THC’s effects on the brain lipidome ([Leishman et al., 2018]). Mice were given a single i.p. injection of either 3 mg/kg CP or 1:1:18 cremophor:ethanol:saline vehicle (please refer to the section “3 mg/kg CP Is Relevant for Synthetic Cannabinoid Abuse and Has Stronger Effects on the Female Mouse Brain Lipidome During Adolescence” for a justification of dose and use of female mice). Three different age groups were given injections: PND 35 and PND 50 adolescents, and adult mice (PND 113). At least eight mice in each age group received CP and at least eight received vehicle. Matching the THC study time course ([Leishman et al., 2018]), mice were sacrificed via rapid decapitation 2 h after injection. Brains were immediately removed and flash-frozen in liquid nitrogen, and then stored at -80°C until dissections were performed. Brains were dissected on an ice-cold dissection plate into the following regions: STR, HIPP, CER, THAL, CTX, HYP, MID, and STEM. These abbreviations for these brain areas will be used exclusively when discussing the results generated by these specific dissections. Each dissected area was immediately placed in liquid nitrogen and then stored at -80°C until used for lipid extraction.
Tissue extracts were performed as previously described ([Bradshaw et al., 2006]; [Stuart et al., 2013]; [Raboune et al., 2014]; [Leishman et al., 2016a],[b], [2017], [2018]). First, samples were shock frozen in liquid nitrogen, weighed, and transferred to a centrifuge tube. The mass of the largest sample was multiplied by 50 to determine how many milliliters of HPLC-grade methanol (Fisher, Fair Lawn, NJ, United States) to add. Then, samples were spiked with 500 pmol deuterium-labeled NAGly (d8NAGly; Cayman Chemical, Ann Arbor, MI, United States). Samples were placed on ice in darkness for 2 h then individually homogenized and centrifuged at 19,000 × g for 20 min at 20°C. Supernatants were diluted with HPLC water (purified in house) to make a solution of 75% water, 25% supernatant. Lipids were partially purified on C18 solid phase extraction columns (Agilent, Palo Alto, CA, United States). A series of four elutions with 1.5 mL of 60%, 75%, 85%, and 100% methanol were collected ([Stuart et al., 2013]; [Leishman et al., 2016a],[b], [2018]).
As previously described ([Bradshaw et al., 2006]; [Tan et al., 2006]; [Smoum et al., 2010]; [Stuart et al., 2013]; [Tortoriello et al., 2013]; [Raboune et al., 2014]; [Leishman et al., 2016a],[b], [2017], [2018]), samples were analyzed using an Applied Biosystems API 3000 triple quadrupole mass spectrometer with electrospray ionization (Foster City, CA, United States). Using an Agilent XDB-C18 reversed phase analytical column and optimized mobile phase gradients, 20 μL from each elution were chromatographed. Two Shimadzu 10ADvp pumps (Columbia, MD, United States) provided the pressure for gradient elution. Mobile phase A: 20% methanol, 80% water (v/v) and 1 mM ammonium acetate (Sigma, St. Louis, MO, United States). Mobile phase B: 100% methanol, 1 mM ammonium acetate. Every method run began with 0% mobile phase B, reached 100% mobile phase B flowing at 0.2 mL/min, and gradually returned to 0% mobile phase B.
This screening library will be referred to as the lipidome when discussing data from this study. HPLC/MS/MS data were analyzed using Analyst software (Applied Biosystems) ([Bradshaw et al., 2006]; [Tan et al., 2006]; [Stuart et al., 2013]; [Tortoriello et al., 2013]; [Raboune et al., 2014]; [Leishman et al., 2016a],[b], [2017], [2018]). Chromatograms (Supplementary Figure 3) were generated by determining the retention time of analytes from the analytical column with a [M-1] or [M+1] parent peak and a fragmentation peak corresponding to the programmed values. […]

[1] = PND 50 female mice, 3mg/kg CP 55,940
[2] = PND 35 WT adolescent female mice, 3 mg/kg

With `CCCCCCC(C)(C)c1ccc([C@@H]2C[C@H](O)CC[C@H]2CCCO)c(O)c1` [CP 55,940] the “N-linoleoyl serine level, Mean” value [1] was 6.73E-11, the “N-linoleoyl tryptophan level, Mean” value [1] was “BDL” and the “N-linoleoyl tyrosine level, Mean” value [1] was “BDL”. For the same compound, the “N-linoleoyl valine level, Mean” value [1] was “BDL”, the “N-nervonoyl valine level, Mean” value [1] was “BDL” and the “N-oleoyl GABA level, Mean” value [1] was 5.62E-12. The “N-oleoyl alanine level, Mean” value [1] was 6.9E-13, the “N-oleoyl dopamine level, Mean” value [1] was “BDL” and the “N-oleoyl ethanolamine level, Mean” value [1] was 1.01E-10. The “N-oleoyl glycine level, Mean” value [1] was 3.06E-12, the “N-oleoyl leucine level, Mean” value [1] was 5.64E-13 and the “N-oleoyl methionine level, Mean” value [1] was 3.18E-13. The “N-oleoyl phenylalanine level, Mean” value [1] was 1.15E-12, the “N-oleoyl proline level, Mean” value [1] was “BDL” and the “N-oleoyl serine level, Mean” value [1] was 1.24E-10. The “N-oleoyl tryptophan level, Mean” value [1] was “BDL”, the “N-oleoyl tyrosine level, Mean” value [1] was 3.77E-13 and the “N-oleoyl valine level, Mean” value [1] was 6.01E-14. For the same compound, the “N-palmitoyl GABA level, Mean” value [1] was 1.3E-11, the “N-palmitoyl alanine level, Mean” value [1] was 1.18E-12 and the “N-palmitoyl ethanolamine level, Mean” value [1] was 7.69E-11. The “N-palmitoyl glycine level, Mean” value [1] was 1.39E-11, the “N-palmitoyl leucine level, Mean” value [1] was 1.38E-12 and the “N-palmitoyl methionine level, Mean” value [1] was 1.13E-12. The “N-palmitoyl phenylalanine level, Mean” value [1] was 1.94E-12, the “N-palmitoyl proline level, Mean” value [1] was “BDL” and the “N-palmitoyl serine level, Mean” value [1] was 1.74E-11. The “N-palmitoyl tryptophan level, Mean” value [1] was “BDL”, the “N-palmitoyl tyrosine level, Mean” value [1] was 8.39E-13 and the “N-palmitoyl valine level, Mean” value [1] was 3.48E-13. The “N-stearoyl GABA level, Mean” value [1] was 1.21E-11, the “N-stearoyl alanine level, Mean” value [1] was 3.21E-13 and the “N-stearoyl ethanolamine level, Mean” value [1] was 3.26E-11. For the same compound, the “N-stearoyl glycine level, Mean” value [1] was 1.13E-12, the “N-stearoyl leucine level, Mean” value [1] was 7.66E-13 and the “N-stearoyl methionine level, Mean” value [1] was 1.11E-12. The “N-stearoyl phenylalanine level, Mean” value [1] was 1.62E-12, the “N-stearoyl proline level, Mean” value [1] was “BDL” and the “N-stearoyl serine level, Mean” value [1] was 3.85E-11. The “N-stearoyl tryptophan level, Mean” value [1] was “BDL”, the “N-stearoyl tyrosine level, Mean” value [1] was 1.16E-13 and the “Oleic acid level, Mean” value [1] was 3.11E-10. For the same compound, the “PGE2 level, Mean” value [1] was 1.09E-10, the “PhosphoLEA level, Mean” value [1] was “PISSR” and the “THC level, Mean” value [1] was “BDL”. For the same compound, the “2-arachidonoyl glycerol level, Mean” value [2] was 3.74E-10, the “2-linoleoyl glycerol level, Mean” value [2] was 1.59E-10 and the “2-oleoyl glycerol level, Mean” value [2] was 1.88E-09. For the same compound, the “2-palmitoyl glycerol level, Mean” value [2] was 4.69E-10, the “6-ketoPGF1α level, Mean” value [2] was 2.09E-11 and the “Arachidonic acid level, Mean” value [2] was 1.63E-09. For the same compound, the “Linoleic acid level, Mean” value [2] was 5.14E-10, the “N- stearoyl valine level, Mean” value [2] was 1.32E-12 and the “N-arachidonoyl GABA level, Mean” value [2] was 1.53E-11. For the same compound, the “N-arachidonoyl alanine level, Mean” value [2] was 8.2E-12, the “N-arachidonoyl ethanolamine level, Mean” value [2] was 2.18E-11 and the “N-arachidonoyl glycine level, Mean” value [2] was 4.42E-11. For the same compound, the “N-arachidonoyl methionine level, Mean” value [2] was 1.48E-12, the “N-arachidonoyl phenylalanine level, Mean” value [2] was 1.53E-12 and the “N-arachidonoyl serine level, Mean” value [2] was 6.81E-12. The “N-arachidonoyl taurine level, Mean” value [2] was 3.84E-11, the “N-arachidonoyl tyrosine level, Mean” value [2] was 1.5E-12 and the “N-docosahexaenoyl GABA level, Mean” value [2] was 2.08E-12. The “N-docosahexaenoyl alanine level, Mean” value [2] was 3.78E-12, the “N-docosahexaenoyl ethanolamine level, Mean” value [2] was 3.99E-11 and the “N-docosahexaenoyl glycine level, Mean” value [2] was 1.87E-11. The “N-docosahexaenoyl leucine level, Mean” value [2] was 7.41E-13, the “N-docosahexaenoyl methionine level, Mean” value [2] was 4.7E-13 and the “N-docosahexaenoyl phenylalanine level, Mean” value [2] was 1.08E-12. The “N-docosahexaenoyl serine level, Mean” value [2] was 2.39E-11, the “N-docosahexaenoyl tyrosine level, Mean” value [2] was 1.6E-12 and the “N-docosahexaenoyl valine level, Mean” value [2] was 3.26E-13. For the same compound, the “N-linoleoyl GABA level, Mean” value [2] was 7.43E-13, the “N-linoleoyl alanine level, Mean” value [2] was 1.52E-12 and the “N-linoleoyl ethanolamine level, Mean” value [2] was 3.78E-11. For the same compound, the “N-linoleoyl glycine level, Mean” value [2] was 4.58E-12, the “N-linoleoyl leucine level, Mean” value [2] was 3.56E-13 and the “N-linoleoyl phenylalanine level, Mean” value [2] was 2.21E-13. For the same compound, the “N-linoleoyl serine level, Mean” value [2] was 5.04E-11, the “N-oleoyl GABA level, Mean” value [2] was 4E-12 and the “N-oleoyl alanine level, Mean” value [2] was 7.02E-12. For the same compound, the “N-oleoyl ethanolamine level, Mean” value [2] was 1.94E-10, the “N-oleoyl glycine level, Mean” value [2] was 2.31E-11 and the “N-oleoyl leucine level, Mean” value [2] was 1.53E-12. For the same compound, the “N-oleoyl methionine level, Mean” value [2] was 1.46E-12, the “N-oleoyl phenylalanine level, Mean” value [2] was 1.6E-12 and the “N-oleoyl serine level, Mean” value [2] was 2.91E-10. For the same compound, the “N-oleoyl tryptophan level, Mean” value [2] was 1.39E-13, the “N-oleoyl tyrosine level, Mean” value [2] was 1.05E-12 and the “N-oleoyl valine level, Mean” value [2] was 1.38E-12. For the same compound, the “N-palmitoyl GABA level, Mean” value [2] was 1.05E-11, the “N-palmitoyl alanine level, Mean” value [2] was 1.05E-11 and the “N-palmitoyl ethanolamine level, Mean” value [2] was 9.08E-11. The “N-palmitoyl glycine level, Mean” value [2] was 4.59E-11, the “N-palmitoyl leucine level, Mean” value [2] was 3.23E-12 and the “N-palmitoyl methionine level, Mean” value [2] was 2.56E-12. For the same compound, the “N-palmitoyl phenylalanine level, Mean” value [2] was 3.04E-12, the “N-palmitoyl proline level, Mean” value [2] was 9.03E-13 and the “N-palmitoyl serine level, Mean” value [2] was 9.45E-11. The “N-palmitoyl tryptophan level, Mean” value [2] was 4.42E-13, the “N-palmitoyl tyrosine level, Mean” value [2] was 2.19E-12 and the “N-palmitoyl valine level, Mean” value [2] was 2.86E-12.
